In patent US12037346B2, “Amino-substituted heteroaryls for treating cancers with EGFR mutations” (Nuvalent, Inc., priority 2021, dated 2024):

Key:
Format in all cases: cell-based
[1] = target: Ba/F3 HER2-YVMA cells (HER2-A775_G776insYVMA) (Homo sapiens, UniProt P04626, DUP772-775, cells depend on it); assay: Cell proliferation assay (CellTiter-Glo), Ba/F3 HER2-YVMA; conditions: read-out: Ba/F3 HER2-YVMA cell proliferation IC50
Experimental: The gene encoding HER2-A775_G776insYVMA (“HER2-YVMA”) was synthesized at GeneRay, cloned into the retroviral construct pMSCV-puro (Biovector), and packaged into retroviral particles. The virus was used to infect Ba/F3 cells (RIKEN) at multiplicity of infection=1 or 10 for 1 day. Infected cells were rescued in media (RPMI-1640 with 10% fetal bovine serum and 1% streptomycin and penicillin) supplemented with mouse IL-3 (10 ng/mL) for 2 days, and stable cell lines were selected by IL-3 withdrawal and puromycin (0.8 μg/mL) for 7 days. Monoclones were selected by single-cell dilution in IL-3-free medium containing puromycin ([…]). Transformation of desired genes was confirmed by Sanger sequencing and western blot using the following antibody: HER2 (CST #2242).
Ba/F3 cells were plated at 1,000 cells/well (40 μL), or NCI-H1781 or A431 cells were plated at 2,000 cells/well (40 μL), in a 384-well plate for 1 day. Test compounds (40 nL) were then added in a 3-fold dilution series using the TECAN EV0200 liquid handler and incubated for 48 hours (“2 days”), 72 hours (“3 days”), or 48 hours followed by renewal of compound solutions and further incubation for 72 hours (“2 days/3 days”). The 72-hour assay was necessary for NCI-H1781 cells, which are slow-growing, and the resupply of fresh compounds on day 3 obviated the potential confounding effects arising from compound degradation in cell media over 72 hours. Plates were equilibrated at room temperature for 15 minutes followed by addition of 40 μL CellTiter-Glo reagent (Promega). Luminescence was measured on a plate reader. Half-maximal inhibitory concentration (IC50) was calculated from percent inhibition and inhibitor concentration using four-parameter logistic regression. […] In these cases, the regression curve was drawn only for the first inflexion to accurately measure on-target growth inhibitory effect.
Ba/F3, NCI-H1781, and A431 proliferation is driven by the oncogenes in the same way that cancer cell proliferation in humans is driven by the expression of equivalent oncogenes.

[2] = target: T1, wild-type EGFR (A431 cells) (Homo sapiens, UniProt P00533); assay: Cellular phosphorylation assay, pEGFR (phospho-EGFR Tyr1068 AlphaLISA) in A431; conditions: compound incubated for 5 hours, EGF (30 ng/mL) for 15 minutes
T1 construct: A431 bears amplification of the wild-type EGFR gene; endogenous in cells; host or cells: A431
Experimental: (§1) Besides Ba/F3s, two commercially available cell lines were also used. NCI-H1781 is a HER2 exon20 insertion cell line bearing HER2-A775_G776insV-G776C. A431 bears amplification of the wild-type EGFR gene.
(§2) Ba/F3 cells were plated at 50,000 cells/well (40 μL), or NCI-H1781 cells or A431 cells were plated at 12,500 cells/well (40 μL), in a 384-well plate for 1 day. Test compounds (40 nL) were then added in a 3-fold dilution series using the TECAN EV0200 liquid handler and incubated for 5 hours. Only for pEGFR analysis in A431, the cells were briefly stimulated with EGF (30 ng/mL) for 15 minutes. Media were removed using Apricot Designs. Phosphoproteins were analyzed using the phospho-EGFR Tyr1068 AlphaLISA kit (“pEGFR”; PerkinElmer #ALSU-PEGFR-B10K;) phospho-ERK Thr202/Tyr204 AlphaLISA kit (“pERK”; PerkinElmer #ALSU-PERK-A10K) or the phospho-ErbB2 Tyr1221/1222 AlphaLISA kit (“pHER2”; PerkinElmer #ALSU-PEB2-A10K;) according to the manufacturer's instructions. Briefly, cells were lysed with lysis buffer (10 μL) containing protease-inhibitor and phosphatase-inhibitor cocktails. The lysates were transferred into a new optical plate, incubated with the acceptor mix (5 μL) for 1.5-2 hours at room temperature in darkness, and then mixed with the donor mix (5 μL) overnight in darkness. Fluorescence was measured on a plate reader using the appropriate AlphaLISA settings. Half-maximal inhibitory concentration (IC50) was calculated from percent inhibition and inhibitor concentration using four-parameter logistic regression. […]

[3] = system: A431 cells (amplification of the wild-type EGFR gene), phospho-ERK Thr202/Tyr204; assay: Cellular phosphorylation assay, pERK (phospho-ERK Thr202/Tyr204 AlphaLISA) in A431; conditions: Homo sapiens, A-431, compound incubated for 5 hours
Experimental: as §1, §2

T1 sequence (P00533 25-1210): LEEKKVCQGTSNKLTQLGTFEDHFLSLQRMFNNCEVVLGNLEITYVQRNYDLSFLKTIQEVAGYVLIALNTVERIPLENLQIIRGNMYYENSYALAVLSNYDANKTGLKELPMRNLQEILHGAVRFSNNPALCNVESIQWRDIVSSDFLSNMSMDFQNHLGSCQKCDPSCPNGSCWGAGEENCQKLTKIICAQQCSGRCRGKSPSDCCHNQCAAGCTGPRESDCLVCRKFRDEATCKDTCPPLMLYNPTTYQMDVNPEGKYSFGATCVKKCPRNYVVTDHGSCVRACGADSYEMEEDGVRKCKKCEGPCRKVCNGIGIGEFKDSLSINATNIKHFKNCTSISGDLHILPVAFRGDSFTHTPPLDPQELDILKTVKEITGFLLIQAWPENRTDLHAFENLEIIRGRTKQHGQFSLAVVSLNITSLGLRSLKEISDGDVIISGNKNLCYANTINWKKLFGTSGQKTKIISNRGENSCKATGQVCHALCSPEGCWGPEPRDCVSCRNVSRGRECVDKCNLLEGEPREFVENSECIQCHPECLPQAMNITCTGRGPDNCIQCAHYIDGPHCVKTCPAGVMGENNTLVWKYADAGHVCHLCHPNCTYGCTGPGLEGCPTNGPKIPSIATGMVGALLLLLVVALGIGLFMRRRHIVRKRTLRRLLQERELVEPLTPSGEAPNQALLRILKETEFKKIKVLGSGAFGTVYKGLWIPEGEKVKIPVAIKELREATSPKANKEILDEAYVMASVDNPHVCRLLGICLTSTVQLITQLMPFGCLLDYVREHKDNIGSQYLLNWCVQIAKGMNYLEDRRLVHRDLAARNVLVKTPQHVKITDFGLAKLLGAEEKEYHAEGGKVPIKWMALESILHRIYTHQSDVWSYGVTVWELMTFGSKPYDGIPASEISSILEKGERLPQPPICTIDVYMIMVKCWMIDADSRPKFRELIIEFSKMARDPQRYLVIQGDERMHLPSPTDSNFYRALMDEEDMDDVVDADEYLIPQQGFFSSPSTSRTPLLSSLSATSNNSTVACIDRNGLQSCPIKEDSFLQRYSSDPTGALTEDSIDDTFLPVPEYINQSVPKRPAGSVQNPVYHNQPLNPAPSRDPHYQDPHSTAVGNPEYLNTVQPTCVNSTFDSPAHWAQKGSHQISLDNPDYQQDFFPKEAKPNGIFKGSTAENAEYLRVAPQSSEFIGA
Sequence of Ba/F3 HER2-YVMA cells (HER2-A775_G776insYVMA) (P04626 with tags, fused parts or gaps DUP772-775): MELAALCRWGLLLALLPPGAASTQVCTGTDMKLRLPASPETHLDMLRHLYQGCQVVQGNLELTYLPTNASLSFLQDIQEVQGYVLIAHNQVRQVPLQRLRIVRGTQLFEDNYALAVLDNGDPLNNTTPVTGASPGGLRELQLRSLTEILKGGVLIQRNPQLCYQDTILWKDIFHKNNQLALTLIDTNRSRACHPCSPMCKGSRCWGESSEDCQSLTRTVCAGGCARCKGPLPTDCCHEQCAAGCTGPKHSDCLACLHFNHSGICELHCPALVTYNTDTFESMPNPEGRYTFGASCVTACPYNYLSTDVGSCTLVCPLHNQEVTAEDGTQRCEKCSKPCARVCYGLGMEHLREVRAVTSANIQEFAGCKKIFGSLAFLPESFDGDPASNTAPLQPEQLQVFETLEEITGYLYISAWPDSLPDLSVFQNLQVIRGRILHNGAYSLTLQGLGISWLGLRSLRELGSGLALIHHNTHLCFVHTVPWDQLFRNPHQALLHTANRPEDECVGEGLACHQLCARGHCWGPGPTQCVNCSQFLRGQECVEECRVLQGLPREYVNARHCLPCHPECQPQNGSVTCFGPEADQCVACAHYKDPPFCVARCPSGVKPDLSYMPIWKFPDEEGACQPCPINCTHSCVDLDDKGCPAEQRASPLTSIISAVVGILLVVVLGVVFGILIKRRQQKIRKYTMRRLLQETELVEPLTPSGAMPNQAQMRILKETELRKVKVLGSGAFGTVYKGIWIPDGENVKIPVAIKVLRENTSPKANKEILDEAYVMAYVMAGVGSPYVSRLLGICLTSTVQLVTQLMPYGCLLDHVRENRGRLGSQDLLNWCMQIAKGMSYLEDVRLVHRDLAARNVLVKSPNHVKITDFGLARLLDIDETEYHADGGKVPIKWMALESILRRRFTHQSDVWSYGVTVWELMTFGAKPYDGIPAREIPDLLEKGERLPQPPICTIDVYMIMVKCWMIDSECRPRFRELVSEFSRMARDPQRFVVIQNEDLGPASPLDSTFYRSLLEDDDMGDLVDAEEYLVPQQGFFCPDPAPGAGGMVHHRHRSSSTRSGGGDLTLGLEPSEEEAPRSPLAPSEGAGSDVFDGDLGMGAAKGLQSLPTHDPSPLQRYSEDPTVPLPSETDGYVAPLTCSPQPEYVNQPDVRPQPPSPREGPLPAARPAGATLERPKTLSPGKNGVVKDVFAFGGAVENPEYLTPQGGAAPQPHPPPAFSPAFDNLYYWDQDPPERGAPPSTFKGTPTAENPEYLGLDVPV

Row | GI50 [1] | IC50 [2] | IC50 [3] | Compound
1 | < 0.1 µM | < 0.1 µM | 0.1 to 0.5 µM | C=CC(=O)N1CC=C(c2ccc3ncnc(Nc4ccc(Oc5ccc6ocnc6c5)c(C)c4)c3n2)CC1 [Example 10]
2 | 0.5 to 1 µM | ≥ 1 µM | – | C=C(F)C(=O)N1CCN(c2ccc3ncnc(Nc4ccc(Oc5ccn6ncnc6c5)c(C)c4)c3n2)CC1 [Example 24]
3 | 0.1 to 0.5 µM | ≥ 1 µM | ≥ 1 µM | Cc1cc(Nc2ncnc3ccc(C4=CCN(C(=O)/C=C/C5CCCN5C)CC4)nc23)ccc1Oc1ccn2ncnc2c1 (stereo not drawn) [Example 25]
4 | 0.1 to 0.5 µM | ≥ 1 µM | ≥ 1 µM | C=CC(=O)N1CCC=C(c2ccc3ncnc(Nc4ccc(Oc5ccn6ncnc6c5)c(C)c4)c3n2)C1 [Example 27]
5 | 0.1 to 0.5 µM | ≥ 1 µM | ≥ 1 µM | C=CC(=O)N1CCC(c2ccc3ncnc(Nc4ccc(Oc5ccn6ncnc6c5)c(C)c4)c3n2)C(C)C1 (stereo not drawn) [Example 28]
6 | 0.1 to 0.5 µM | ≥ 1 µM | – | C=CC(=O)N1CC=C(c2ccc3ncnc(Nc4ccc(Oc5ccn6ncnc6c5)c(C)c4)c3c2F)CC1 [Example 30]
7 | 0.1 to 0.5 µM | ≥ 1 µM | ≥ 1 µM | C=CC(=O)N1CC(c2ccc3ncnc(Nc4ccc(Oc5ccn6ncnc6c5)c(C)c4)c3n2)C1 [Example 33]
8 | 0.1 to 0.5 µM | ≥ 1 µM | – | C=CC(=O)N1C[C@@H]2CN(c3ncc4ncnc(Nc5ccc(Oc6ccn7ncnc7c6)c(C)c5F)c4n3)C[C@@H]2C1 [Example 46]
9 | 0.1 to 0.5 µM | ≥ 1 µM | – | C=CC(=O)N1CCC2(C1)CN(c1ncc3ncnc(Nc4ccc(Oc5ccn6ncnc6c5)c(C)c4F)c3n1)C2 [Example 47]
10 | 0.1 to 0.5 µM | ≥ 1 µM | – | C=CC(=O)N1CCC2(CCN(c3ncc4ncnc(Nc5ccc(Oc6ccn7ncnc7c6)c(C)c5F)c4n3)C2)C1 (stereo not drawn) [Example 48]
11 | < 0.1 µM | 0.1 to 0.5 µM | – | C=CC(=O)N1CC=C(c2ncc3ncnc(Nc4ccc(Oc5ccn6ncnc6c5)c(C)c4F)c3n2)CCC1 [Example 57]
12 | < 0.1 µM | ≥ 1 µM | ≥ 1 µM | C=CC(=O)N1CCC(c2ncc3ncnc(Nc4cc(C)c(Oc5ccn6ncnc6c5)cc4F)c3n2)=C[C@@H]1C [Example 58]
13 | 0.1 to 0.5 µM | – | ≥ 1 µM | C=CC(=O)N1CC=C(c2ncc3ncnc(Nc4ccc(Oc5ccn6ncnc6c5)c(C(F)F)c4F)c3n2)C[C@@H]1C [Example 61]
14 | 0.1 to 0.5 µM | ≥ 1 µM | ≥ 1 µM | C=CC(=O)N1CCN(c2ncc3ncnc(Nc4ccc(Oc5ccn6ncnc6n5)c(C)c4F)c3n2)C[C@H]1C [Example 65]
15 | < 0.1 µM | 0.1 to 0.5 µM | – | C=CC(=O)N1CC=C(c2nc3c(Nc4ccc(Oc5ccn6ncnc6c5)c(C)c4)ncnc3cc2OC)CC1 [Example 66]
16 | < 0.1 µM | ≥ 1 µM | 0.5 to 1 µM | C=CC(=O)N1CCN(c2ncc3ncnc(Nc4ccc(Oc5ccc6c(c5)ncn6C)cc4F)c3n2)CC1 [Example 67]
17 | < 0.1 µM | 0.5 to 1 µM | 0.1 to 0.5 µM | C=CC(=O)N1CCN(c2ncc3ncnc(Nc4ccc(Oc5ccc6c(c5)ncn6C)c(C)c4F)c3n2)C[C@H]1C [Example 68]
18 | < 0.1 µM | 0.5 to 1 µM | 0.1 to 0.5 µM | Cc1c(Oc2ccn3ncnc3c2)ccc(Nc2ncnc3cnc(C4=CCN(C(=O)/C=C/CN(C)C)CC4)nc23)c1F [Example 69]
19 | < 0.1 µM | 0.1 to 0.5 µM | 0.1 to 0.5 µM | C=CC(=O)N1CC=C(c2ccc3ncnc(Nc4ccc(Oc5ccn6ccnc6c5)c(C)c4)c3n2)CC1 [Example 70]
20 | 0.1 to 0.5 µM | 0.1 to 0.5 µM | 0.1 to 0.5 µM | C=CC(=O)N1CC=C(c2ccc3ncnc(Nc4ccc(Oc5ccc6ccn(C)c6c5)c(C)c4)c3n2)CC1 [Example 71]

Row | GI50 [1] | IC50 [2] | IC50 [3] | Compound
21 | < 0.1 µM | < 0.1 µM | 0.1 to 0.5 µM | C=CC(=O)N1CC=C(c2ccc3ncnc(Nc4ccc(Oc5ccn6nccc6c5)c(C)c4)c3n2)CC1 [Example 72]
22 | < 0.1 µM | 0.1 to 0.5 µM | 0.1 to 0.5 µM | C=CC(=O)N1CCN(c2ncc3ncnc(Nc4ccc(Oc5cc6ncnn6cn5)c(C)c4F)c3n2)C[C@H]1C [Example 73]
23 | < 0.1 µM | 0.1 to 0.5 µM | < 0.1 µM | C=CC(=O)N1CCN(c2ncc3ncnc(Nc4ccc(Oc5ccc6c(c5)ncn6C)c(C)c4F)c3n2)CC1 [Example 74]
24 | < 0.1 µM | 0.5 to 1 µM | 0.1 to 0.5 µM | C=CC(=O)N1CCN(c2ccc3ncnc(Nc4ccc(Oc5ccn6c(C)cnc6c5)c(C)c4F)c3c2F)C[C@H]1C [Example 75]
25 | 0.1 to 0.5 µM | ≥ 1 µM | – | C=CC(=O)N1CCN(c2ncc3ncnc(Nc4cc(C)c(Oc5ccn6ncnc6c5)cc4F)c3n2)CC1(C)C [Example 76]
26 | < 0.1 µM | 0.1 to 0.5 µM | – | C=CC(=O)N1CCN(c2ncc3ncnc(Nc4ccc(Oc5ccn6ncnc6c5)c(C)c4F)c3n2)CC1(C)C [Example 77]
27 | < 0.1 µM | ≥ 1 µM | 0.5 to 1 µM | C=CC(=O)N1CC=C(c2ncc3ncnc(Nc4ccc(Oc5ccn6ncnc6c5)c(C)c4F)c3n2)C[C@H]1C [Example 80]
28 | < 0.1 µM | 0.1 to 0.5 µM | 0.1 to 0.5 µM | C=CC(=O)N1CCN(c2ncc3ncnc(Nc4ccc(Oc5ccn6ncnc6c5)c(C)c4F)c3n2)C[C@H]1CF [Example 81]
29 | < 0.1 µM | < 0.1 µM | 0.1 to 0.5 µM | C=CC(=O)N1CCN(c2ncc3ncnc(Nc4ccc(Oc5ccn6ncnc6c5)c(Cl)c4F)c3n2)C[C@H]1C [Example 82]
30 | < 0.1 µM | 0.1 to 0.5 µM | 0.1 to 0.5 µM | Cc1c(Oc2ccn3ncnc3c2)ccc(Nc2ncnc3cnc(C4=C[C@@H](C)N(C(=O)/C=C/CN(C)C)CC4)nc23)c1F [Example 83]
31 | < 0.1 µM | 0.5 to 1 µM | 0.1 to 0.5 µM | C=CC(=O)N1CCN(c2ncc3ncnc(Nc4ccc(Oc5ccc6c(c5)ncn6C)c(C)c4F)c3c2F)C[C@H]1C [Example 84]
32 | < 0.1 µM | ≥ 1 µM | ≥ 1 µM | C=CC(=O)N1CC=C(c2ccc3ncnc(Nc4ccc(Oc5ccn6ncnc6c5)c(C)c4)c3n2)C[C@@H]1C [Example 85]
33 | < 0.1 µM | 0.1 to 0.5 µM | 0.1 to 0.5 µM | C=CC(=O)N1CC=C(c2ccc3ncnc(Nc4ccc(Oc5ccn6ncnc6c5)c(C)c4)c3n2)C[C@H]1C [Example 86]
34 | < 0.1 µM | ≥ 1 µM | – | C=CC(=O)N1C(C)CN(c2ccc3ncnc(Nc4ccc(Oc5ccn6ncnc6c5)c(C)c4)c3n2)CC1C (stereo not drawn) [Example 92]
35 | < 0.1 µM | ≥ 1 µM | – | C=CC(=O)N1CCN(c2ccc3ncnc(Nc4ccc(Oc5ccn6ncnc6c5)c(C)c4F)c3c2F)CC1 [Example 93]
36 | < 0.1 µM | 0.5 to 1 µM | ≥ 1 µM | C=CC(=O)N1CCC(c2ncc3ncnc(Nc4ccc(Oc5ccn6ncnc6c5)c(C)c4)c3n2)=C[C@@H]1C [Example 94]
37 | < 0.1 µM | – | 0.5 to 1 µM | C=CC(=O)N1CC=C(c2ncc3ncnc(Nc4ccc(Oc5cc(C)n6ncnc6c5)c(C)c4F)c3n2)C[C@@H]1C [Example 97]
38 | < 0.1 µM | 0.5 to 1 µM | – | C=CC(=O)N1CCN(c2ncc3ncnc(Nc4ccc(Oc5ccn6ncnc6c5)c(C)c4F)c3n2)CC1 [Example 98]
39 | < 0.1 µM | < 0.1 µM | – | C=CC(=O)N1CCN(c2ncc3ncnc(Nc4ccc(Oc5ccn6ncnc6c5)c(C)c4F)c3n2)C[C@H]1C(F)F [Example 99]
